Laboratory results: patent US20250154202A1, “CYCLIC EPITOPE TAGS” (BIONTECH SE, priority 2022, published 2025)
“And” between values parts separate entries of the source, which are not always exact repeats. Equal values may be shown once. Bridge positions count the residues as written; N and C are the ends. Square brackets hold non-standard residues; d marks the D form. Peptide text beside a SMILES is read from it.

Legend:
NbALFA = assay: SPR measurements of NbALFA binding (Biacore T200, multi cycle kinetics, 1:1 binding model); conditions: 25° C., HBS-EP+ buffer, biotinylated NbALFA captured
Procedure: Affinity measurements were performed using a Biacore T200 (GE Healthcare, Biacore T200 control Software 3.2). […] A freshly docked Biotin CAPture chip was rehydrated overnight in the instrument (standby mode). […] The immobilization of the Nanobody was done for 180 s at 10 μL/min on FC2 followed by quenching of unbound streptavidin by 0.1 mM biocytin for 60 s and 30 μL/min on both flow cells. […] After each cycle, the surface was regenerated for 120 s with 10 μL/min using regeneration solution. All measurements were performed at 25° C. using HBS-EP+ buffer (Cytiva Europe, Cat. no BR100669). The control responses from FC1 were subtracted by the sample measurement in FC2 (FC2−FC1) followed by subtraction of the 0 nM blank injection. Resulting binding curves of this multi cycle kinetic experiment were fitted using the Biacore T200 Evaluation Software 3.2 and a 1:1 binding model.

[1] = Plasma stability, mouse plasma; conditions: for remaining at 1 h, 10 µM / remaining at 3 h, 10 µM / remaining at 6 h, 10 µM: Balb C, Li-heparin plasma; for remaining at 1 h, 10 µM / remaining at 3 h, 10 µM / remaining at 6 h, 10 µM / half-life: mouse; for Conc. (% of T0) / Mean (compound concentration) / Tube 2 (compound concentration) / Tube 1 (compound concentration) / half-life: mouse plasma, 37° C.; for half-life: plasma
Procedure: Plasma stability measurements were performed by spiking 5 μl of a 1 mM compound stock solution in DMSO into 495 μl of human or mouse Li-heparin plasma (Innovative Research, Cat. No, IPLALIH5OML (human) and IMS-BC-N (Balb C mouse). The spiked plasma was distributed in 50 μl aliquots into capped PCR tubes for incubation at 37° C. At each time point (0, 2, 6, 24 hours*) 3*aliquots were withdrawn from the incubator. Enzymatic reactions were quenched directly after withdrawal by adding 100 μl of acetonitrile/formic acid=99/1 (v/v). Quenched samples were stored at ambient temperature until the end of the incubation period (24 hrs*). After centrifugation, the supernatant was transferred into fresh vials and analyzed by LC-MS/MS in ESI positive mode (Waters ACQUITY UPLC I-Class System (SM-FTN) with Xevo TQD triple quadrupole mass spectrometer with control software Waters MassLynx). […] Values below the limit of quantification (0.1 μM) and outliers of triplicate results were excluded from further calculations. An exponential regression curve was fitted onto the concentration results. Half-life times were calculated from the slope of the regression curve (t1/2=ln(2)/slope).
For some samples, as indicated below, the incubation time was 6 hours. The 24 hour data was measured in triplicates whereas the 6 hour data was measured in duplicates.

[2] = Plasma stability, human plasma; conditions: for remaining at 1 h, 10 µM / remaining at 3 h, 10 µM / remaining at 6 h, 10 µM / half-life: human; for remaining at 1 h, 10 µM / remaining at 3 h, 10 µM / remaining at 6 h, 10 µM: human Li-heparin plasma; for half-life: plasma
[3] = timepoint 0 h, calibration range 0.1 to 10 μM
[4] = Flag (half-life, assay exceeded)
[5] = Half-life time, incubation 24 h (triplicates) or 6 h (duplicates)
[6] = human plasma, 37° C., timepoint 0 h
[7] = human plasma, 37° C., timepoint 0 h, calibration range 0.1 to 10 μM
[8] = human plasma, 37° C., timepoint 1 h
[9] = human plasma, 37° C., timepoint 3 h
[10] = human plasma, 37° C., timepoint 6 h
[11] = Flag (half-life, assay exceeded), human plasma, 37° C.
[12] = Half-life time, human plasma, 37° C., incubation 24 h (triplicates) or 6 h (duplicates)
[13] = Conc. (% of T0), human plasma, 37° C., timepoint 1 h
[14] = Conc. (% of T0), human plasma, 37° C., timepoint 3 h

| Compound | remaining at 1 h, 10 µM [1] [%] | remaining at 3 h, 10 µM [1] [%] | remaining at 6 h, 10 µM [1] [%] | Conc. (% of T0) ([1]; timepoint 0 h) | Mean (compound concentration) ([1]; timepoint 0 h) | Tube 2 (compound concentration) ([1]; timepoint 0 h) | Tube 1 (compound concentration) [1, 3] [x] | Mean (compound concentration) ([1]; timepoint 1 h) | Tube 1 (compound concentration) ([1]; timepoint 1 h) [x] | Tube 2 (compound concentration) ([1]; timepoint 1 h) | Mean (compound concentration) ([1]; timepoint 3 h) | Tube 1 (compound concentration) ([1]; timepoint 3 h) [x] | Tube 2 (compound concentration) ([1]; timepoint 3 h) | Mean (compound concentration) ([1]; timepoint 6 h) | Tube 1 (compound concentration) ([1]; timepoint 6 h) [x] | Tube 2 (compound concentration) ([1]; timepoint 6 h) | half-life [1, 5] [h] | Conc. (% of T0) [2, 6] | Mean (compound concentration) [2, 6] | Tube 2 (compound concentration) [2, 6] | other results |
| --- | --- | --- | --- | --- | --- | --- | --- | --- | --- | --- | --- | --- | --- | --- | --- | --- | --- | --- | --- | --- | --- |
| CC(=O)N1CCC[C@H]1C(=O)N[C@@H](CO)C(=O)N[C@@H](CCCNC(=N)N)C(=O)N[C@@H](CC(C)C)C(=O)N[C@@H](CCC(=O)O)C(=O)N[C@H]1CCCCNC(=O)CC[C@@H](C(=O)N[C@@H](CCCNC(=N)N)C(=O)N[C@@H](CC(C)C)C(=O)N[C@H](C(=O)N[C@@H](CCC(=O)O)C(N)=O)[C@@H](C)O)NC(=O)[C@H](CCCNC(=N)N)NC(=O)[C@H](CC(C)C)NC(=O)[C@H](CCC(=O)O)NC1=O [SD15805, Ac-Pro-Ser-Arg-Leu-Glu-(cyclo6)Lys-Glu-Leu-Arg-(cyclo10)Glu-Arg-Leu-Thr-Glu-NH2] (Ac-PSRLEKELRERLTE-NH2; lactam 6-10) | 82.1 | 78.3 | 53.8 | 100.0 % of T0 | 2.697 | 2.811 | 2.583 | 2.213 | 2.223 | 2.203 | 2.112 | 2.125 | 2.099 | 1.450 | 1.429 | 1.471 | 7.29 | 100.0 % of T0 | 2.836 | 2.777 | Kd (NbALFA): 103 pM; ka (NbALFA): 9.33e+06 M⁻¹ s⁻¹; kd (NbALFA): 0.000964 s⁻¹; half-life [1, 4]: > 6 h; Tube 1 (compound concentration) [2, 7]: 2.894 x; Mean (compound concentration) [2, 8]: 2.507; Tube 1 (compound concentration) [2, 8]: 2.529 x; Tube 2 (compound concentration) [2, 8]: 2.485; Mean (compound concentration) [2, 9]: 2.356; Tube 1 (compound concentration) [2, 9]: 2.408 x; Tube 2 (compound concentration) [2, 9]: 2.304; Mean (compound concentration) [2, 10]: 2.046; Tube 1 (compound concentration) [2, 10]: 2.046 x; Tube 2 (compound concentration) [2, 10]: 2.045; remaining at 1 h, 10 µM [2]: 88.4%; remaining at 3 h, 10 µM [2]: 83.1%; remaining at 6 h, 10 µM [2]: 72.1%; half-life [2, 11]: > 6 h; half-life [2, 12]: 13.8 h |
| CC(=O)N1CCC[C@H]1C(=O)N[C@@H](CO)C(=O)N[C@@H](CCCNC(=N)N)C(=O)N[C@@H](CC(C)C)C(=O)N[C@H]1CCC(=O)NCCCC[C@@H](C(=O)N[C@@H](CCCNC(=N)N)C(=O)N[C@@H](CCCNC(=N)N)C(=O)N[C@@H](CC(C)C)C(=O)N[C@H](C(=O)N[C@@H](CCC(=O)O)C(N)=O)[C@@H](C)O)NC(=O)[C@H](CC(C)C)NC(=O)[C@H](CCC(=O)O)NC(=O)[C@H](CCC(=O)O)NC1=O [SD15806, Ac-Pro-Ser-Arg-Leu-(cyclo5)Glu-Glu-Glu-Leu-(cyclo9)Lys-Arg-Arg-Leu-Thr-Glu-NH2] (Ac-PSRLEEELKRRLTE-NH2; lactam 5-9) | 88.4 | 83.1 | 73.7 | 100.0 % of T0 | 3.073 | 3.145 | 3.000 | 2.717 | 2.773 | 2.661 | 2.553 | 2.604 | 2.501 | 2.265 | 2.258 | 2.272 | 14.9 | 100.0 % of T0 | 3.040 | 2.965 | Kd (NbALFA): 1430 pM; ka (NbALFA): 3.44e+09 M⁻¹ s⁻¹; kd (NbALFA): 4.94 s⁻¹; half-life [1, 4]: > 6 h; Tube 1 (compound concentration) [2, 7]: 3.114 x; Mean (compound concentration) [2, 8]: 2.859; Tube 1 (compound concentration) [2, 8]: 2.843 x; Tube 2 (compound concentration) [2, 8]: 2.874; Mean (compound concentration) [2, 9]: 2.629; Tube 1 (compound concentration) [2, 9]: 2.772 x; Tube 2 (compound concentration) [2, 9]: 2.486; Mean (compound concentration) [2, 10]: 2.476; Tube 1 (compound concentration) [2, 10]: 2.534 x; Tube 2 (compound concentration) [2, 10]: 2.417; remaining at 1 h, 10 µM [2, 13]: 94%; remaining at 3 h, 10 µM [2, 14]: 86.5%; remaining at 6 h, 10 µM ([2]; Conc. (% of T0), human plasma, 37° C., timepoint 6 h): 81.4%; half-life [2, 11]: > 6 h; half-life [2, 12]: 20.8 h |
| CC(=O)N1CCC[C@H]1C(=O)N[C@@H](CO)C(=O)N[C@@H](CCCNC(=N)N)C(=O)N[C@@H](CC(C)C)C(=O)N[C@@H](CCC(=O)O)C(=O)N[C@H]1CSSC[C@H](C(=O)N[C@@H](CCCNC(=N)N)C(=O)N[C@@H](CCCNC(=N)N)C(=O)N[C@@H](CC(C)C)C(=O)N[C@H](C(=O)N[C@@H](CCC(=O)O)C(N)=O)[C@@H](C)O)NC(=O)[C@H](CC(C)C)NC(=O)[C@H](CCC(=O)O)NC1=O [SD15807, Ac-Pro-Ser-Arg-Leu-Glu-(cyclo6)Cys-Glu-Leu-(cyclo9)dCys-Arg-Arg-Leu-Thr-Glu-NH2] (Ac-PSRLECEL[dC]RRLTE-NH2; disulfide 6-9) | 78.7 | 60.9 | 37 | 100.0 % of T0 | 2.172 | 2.194 | 2.149 | 1.710 | 1.726 | 1.693 | 1.322 | 1.321 | 1.323 | 0.804 | 0.803 | 0.804 | 4.32 | 100.0 % of T0 | 2.217 and 2.958 | 2.230 and 3.034 | Tube 1 (compound concentration) [2, 7]: 2.203 x and 2.882 x; Mean (compound concentration) [2, 8]: 2.093 and 2.872; Tube 1 (compound concentration) [2, 8]: 2.094 x and 2.884 x; Tube 2 (compound concentration) [2, 8]: 2.092 and 2.860; Conc. (% of T0) ([2]; human plasma, 37° C., timepoint 1 h, 60 min): 97.1 % of T0; Mean (compound concentration) [2, 9]: 1.662 and 2.596; Tube 1 (compound concentration) [2, 9]: 1.583 x and 2.532 x; Tube 2 (compound concentration) [2, 9]: 1.740 and 2.660; Conc. (% of T0) ([2]; human plasma, 37° C., timepoint 3 h, 180 min): 87.8 % of T0; Conc. (% of T0) ([2]; human plasma, 37° C., timepoint 6 h, 360 min): 51.2 % of T0 and 77.7 % of T0; remaining at 1 h, 10 µM [2, 13]: 94.4%; remaining at 3 h, 10 µM [2, 14]: 75%; half-life [2, 11]: > 6 h; half-life [2, 12]: 6.07 h |
